The values that follow come from ChEMBL document CHEMBL4428084, “Discovery and Optimization of N-(4-(3-Aminophenyl)thiazol-2-yl)acetamide as a Novel Scaffold Active against Sensitive and Resistant Cancer Cells” (J Med Chem, 2016).

Assay [1] deals with A-375. Description: Cytotoxicity against vemurafenib-sensitive human A375 cells assessed as cell viability at 10 uM after 48 hrs by trypan blue exclusion assay relative to control. Format: functional. As to conditions: A-375, 48 h, read-out: Activity.
For assay [2], the system named is K562. Description: Cytotoxicity against imatinib-resistant human K562 cells assessed as cell viability at 10 uM after 48 hrs by trypan blue exclusion assay relative to control. The settings on record: K562, 48 h, read-out: Activity. Type of assay: functional.
For assay [3], the system named is BXPC-3. Description: Cytotoxicity against gemcitabine-sensitive human BxPC3 cells assessed as cell viability at 10 uM after 48 hrs by trypan blue exclusion assay relative to control. Format: functional. As to conditions: BXPC-3, 48 h, read-out: Activity.
Assay [4] is described as follows: Cytotoxicity against vemurafenib-resistant human A375 RIV cells assessed as cell viability at 1 uM after 48 hrs by trypan blue exclusion assay relative to control. Type of assay: functional. The settings on record: A-375, 48 h, read-out: Activity.
The test system of assay [5] is K562. Description: Cytotoxicity against imatinib-sensitive human K562 cells assessed as cell viability at 10 uM after 48 hrs by trypan blue exclusion assay relative to control. Format: functional. As to conditions: K562, 48 h, read-out: Activity.
Assay [6] can be described thus: Cytotoxicity against vemurafenib-resistant human A375 R5C3 cells assessed as cell viability at 10 uM after 48 hrs by trypan blue exclusion assay relative to control. As to conditions: A-375, 48 h, read-out: Activity. Type of assay: functional.
Assay [7] has as its system MIA PaCa-2. Description: Cytotoxicity against gemcitabine-resistant human MIAPaCa2 cells assessed as cell viability at 10 uM after 48 hrs by trypan blue exclusion assay relative to control. The settings on record: MIA PaCa-2, 48 h, read-out: Activity. Type of assay: functional.
Assay [8] in a line: Cytotoxicity against vemurafenib-resistant human A375 RIV cells assessed as cell viability at 10 uM after 48 hrs by trypan blue exclusion assay relative to control. As to conditions: A-375, 48 h, read-out: Activity. Format: functional.
The nature of assay [9]: Cytotoxicity against vemurafenib-resistant human A375 R5C3 cells assessed as cell viability at 5 uM after 48 hrs by trypan blue exclusion assay relative to control. The settings on record: A-375, 48 h, read-out: Activity. Format: functional.
The test system of assay [10] is A-375. Description: Cytotoxicity against vemurafenib-sensitive human A375 cells assessed as cell viability at 5 uM after 48 hrs by trypan blue exclusion assay relative to control. Format: functional. The settings on record: A-375, 48 h, read-out: Activity.
The nature of assay [11]: Cytotoxicity against vemurafenib-resistant human A375 RIV cells assessed as cell viability at 5 uM after 48 hrs by trypan blue exclusion assay relative to control. Type of assay: functional. As to conditions: A-375, 48 h, read-out: Activity.
For assay [12], the system named is A-375. Description: Induction of apoptosis in human A375 cells assessed as cells with active caspase-3 at 1 uM after 12 hrs by flow cytometry (reference value: 4.16%). Type of assay: functional. A general note: A flow cytometer gives signals particle by particle.
Assay [13] has as its system MIA PaCa-2. Description: Cytotoxicity against gemcitabine-resistant human MIAPaCa2 cells assessed as cell viability at 0.1 uM after 48 hrs by trypan blue exclusion assay relative to control. Type of assay: functional. As to conditions: MIA PaCa-2, 48 h, read-out: Activity.
Assay [14] concerns BXPC-3. Description: Cytotoxicity against gemcitabine-sensitive human BxPC3 cells assessed as cell viability at 0.1 uM after 48 hrs by trypan blue exclusion assay relative to control. Format: functional. The settings on record: BXPC-3, 48 h, read-out: Activity.
The test system of assay [15] is K562. Description: Cytotoxicity against imatinib-sensitive human K562 cells assessed as cell viability at 1 uM after 48 hrs by trypan blue exclusion assay relative to control. As to conditions: K562, 48 h, read-out: Activity.
The test system of assay [16] is K562. Description: Cytotoxicity against imatinib-resistant human K562 cells assessed as cell viability at 1 uM after 48 hrs by trypan blue exclusion assay relative to control. The settings on record: K562, 48 h, read-out: Activity.

Each structure is given as a SMILES string.

As for `CC(=O)Nc1nc(-c2cccc(NS(=O)(=O)c3ccc(C(C)(C)C)cc3)c2)cs1`, the viability at 10 µM in assay [1] was 1.5%; in assay [2] it was 35.1%; in [3], below 1%; in [5], 19.4%; in assay [6], 51.1%; in assay [7], below 1%. The viability at 10 µM in assay [8] is below 1%. Also, in [4], the viability at 1 µM was found to be 39.4%.
As for `CC(=O)Nc1nc(-c2cccc(NS(=O)(=O)c3ccc4c(c3)CCC4)c2)cs1`, the viability at 10 µM in assay [1] came out at 26.3%.
Turning to `CC(=O)Nc1nc(-c2cccc(NS(=O)(=O)c3ccc(C)s3)c2)cs1`, the viability at 10 µM in [1] is 37.5%.
As for `CCCS(=O)(=O)Nc1ccc(F)c(C(=O)c2c[nH]c3ncc(-c4ccc(Cl)cc4)cc23)c1F` [VEMURAFENIB], the viability at 5 µM came out at 101% in [9], 44% in assay [10] and 76.7% in assay [11].
With `CCCCc1ccc(S(=O)(=O)Nc2cccc(-c3csc(NC(C)=O)n3)c2)cc1`, the viability at 10 µM is 2.2% in assay [1]; 60.9% in [2]; 4.3% in assay [3]; 51.6% in assay [5]; 9.9% in [6]; below 1% in [7]. Besides, the viability at 10 µM in assay [8] came out at 26.7%.
On to `CC(=O)Nc1nc(-c2cccc(NS(=O)(=O)c3sc(C)nc3C)c2)cs1`, for which, in assay [1], the viability at 10 µM was determined as 29.2%.
Consider `CC(=O)Nc1nc(-c2cccc(NS(=O)(=O)c3ccc(I)cc3)c2)cs1`, for which the viability at 10 µM is below 1% in assay [1]; 27% in assay [2]; below 1% in [3]; 15% in [5]; 8.4% in assay [6]; 15.8% in [7]. In [8], the viability at 10 µM was 10%.
As to `CC(=O)Nc1nc(-c2cccc(NS(=O)(=O)c3ccc(C)cc3)c2)cs1`, the viability at 10 µM in assay [1] is 19.8%; in assay [2], 38.5%; in [3] it was 21.6%; in assay [5] it was 15.3%; in assay [6], 75.9%; in [7] it was 49.1%. The viability at 10 µM in assay [8] stood at 53.3%.
With `CC(=O)Nc1nc(-c2cccc(NS(=O)(=O)c3cccc4ccccc34)c2)cs1`, the viability at 10 µM in assay [1] turned out to be 20.4%.
With `CC(=O)Nc1nc(-c2cccc(NC(=O)c3ccc4ccccc4c3)c2)cs1`, the viability at 10 µM in assay [1] amounted to 18.3%; in [2] it was 89.7%; in [3] it was 1.5%; in [5] it was 53.9%; in assay [6], 63.8%; in assay [7], 7%. The viability at 10 µM in assay [8] came to 30%.
Regarding `CC(=O)Nc1nc(-c2cccc([N+](=O)[O-])c2)cs1`, in assay [1], the viability at 10 µM was found to be 47.3%.
As for `CCc1ccc(S(=O)(=O)Nc2cccc(-c3csc(NC(C)=O)n3)c2)cc1`, the viability at 10 µM was 7.5% in [1]; 27% in assay [2]; 21% in assay [3]; 12.8% in assay [5]; 80.1% in assay [6]; 40.7% in assay [7]. The viability at 10 µM in assay [8] amounted to 26.7%.
Regarding `CC(=O)Nc1nc(-c2cccc(NS(=O)(=O)c3cccc(C)c3)c2)cs1`, in assay [1], the viability at 10 µM worked out at 51.2%.
`CC(=O)Nc1nc(-c2cccc(NS(=O)(=O)c3ccc(-c4ccccc4)cc3)c2)cs1`: the viability at 10 µM in [1] is 33.9%.
In the case of `CC(=O)Nc1nc(-c2cccc(NS(=O)(=O)c3ccc(-c4ccc(C)cc4)cc3)c2)cs1`, the viability at 10 µM in assay [1] amounted to 26.3%.
Take `CC(=O)Nc1nc(-c2cccc(NS(=O)(=O)c3cn(C)cn3)c2)cs1`: the viability at 10 µM in [1] was found to be 36.8%.
For `CC(=O)Nc1nc(-c2cccc(NS(=O)(=O)c3ccc4c(c3)OCCO4)c2)cs1`, the viability at 10 µM in assay [1] is 29.6%.
For `CCCCCCCC(=O)Nc1cccc(-c2csc(NC(C)=O)n2)c1`, in assay [1], the viability at 10 µM turned out to be 40%.
For `CC(=O)Nc1nc(-c2cccc(NS(=O)(=O)c3cccc4c3ccn4C)c2)cs1`, in assay [1], the viability at 10 µM was 60.7%.
With `CC(=O)Nc1nc(-c2cccc(NS(=O)(=O)c3cc4ccccc4s3)c2)cs1`, the viability at 10 µM in assay [1] amounted to 29.2%.
As for `CN[C@@H]1C[C@H]2O[C@@](C)([C@@H]1OC)n1c3ccccc3c3c4c(c5c6ccccc6n2c5c31)C(=O)NC4` [STAUROSPORINE], the Activity in assay [12] worked out at 46.95%.
Take `CC(=O)Nc1nc(-c2cccc(NS(=O)(=O)c3ccccc3)c2)cs1`: the viability at 10 µM in assay [1] came to 72.2%.
As for `Nc1ccn([C@@H]2O[C@H](CO)[C@@H](O)C2(F)F)c(=O)n1` [GEMCITABINE], the viability at 0.1 µM in [13] came out at 86.5%; in assay [14] it was 2%.
In the case of `CC(=O)Nc1nc(-c2cccc(NS(=O)(=O)c3ccc4oc(=O)ccc4c3)c2)cs1`, the viability at 10 µM in assay [1] came to 65.5%.
`CC(=O)Nc1nc(-c2cccc(NC(=O)c3ccco3)c2)cs1`: in [1], the viability at 10 µM worked out at 29.2%.
Turning to `CCCCC#Cc1ccc(S(=O)(=O)Nc2cccc(-c3csc(NC(C)=O)n3)c2)cc1`, the viability at 10 µM in [1] is below 1%; in [2], 35.1%; in assay [3], below 1%; in [5], 26.9%; in [6], 7.8%; in [7], below 1%. The viability at 10 µM in assay [8] is 10%.
For `CC(=O)Nc1nc(-c2cccc(NS(=O)(=O)c3ccc4c(ccn4C)c3)c2)cs1`, the viability at 10 µM in [1] was determined as 46.5%.
As to `CC(=O)Nc1nc(-c2cccc(NS(=O)(=O)c3cccc4cccnc34)c2)cs1`, the viability at 10 µM in [1] came to 59.5%.
On to `CC(=O)Nc1nc(-c2cccc(N)c2)cs1`, for which the viability at 10 µM in assay [1] stood at 38.4%.
Consider `CC(=O)Nc1nc(-c2cccc(NS(=O)(=O)c3c[nH]cn3)c2)cs1`, for which the viability at 10 µM in [1] amounted to 45.7%.
Regarding `CC(=O)Nc1nc(-c2cccc(NS(=O)(=O)c3cccs3)c2)cs1`, the viability at 10 µM in assay [1] stood at 29.6%.
Turning to `CCCCCc1ccc(S(=O)(=O)Nc2cccc(-c3csc(NC(C)=O)n3)c2)cc1`, the viability at 10 µM in assay [1] was 2.8%; in [2], 72.7%; in assay [3], below 1%; in assay [5] it was 51%; in assay [6], 15.6%; in assay [7] it was below 1%. The viability at 10 µM in assay [8] is below 1%. For the same compound, the viability at 1 µM in assay [4] is 27.7%.
Consider `Cc1ccc(NC(=O)c2ccc(CN3CCN(C)CC3)cc2)cc1Nc1nccc(-c2cccnc2)n1` [IMATINIB], for which the viability at 1 µM in [15] turned out to be 9.7%; in assay [16], 85.5%.
For `CC(=O)Nc1nc(-c2cccc(NS(=O)(=O)c3ccc4ccccc4c3)c2)cs1`, the viability at 10 µM was determined as 3.3% in assay [1]; 25.6% in assay [2]; 0.6% in assay [3]; 31% in assay [5]; 49.6% in assay [6]; 7% in assay [7]. Besides, the viability at 10 µM in assay [8] is 33.3%.
